For experiment [1], the target named is T1, urokinase enzyme Abbokinase (Homo sapiens, UniProt P00749).
T1 construct: purchased Abbott Laboratories, Abbott Park, Ill
The experiment can be described thus: Determination of Urokinase Inhibition (chromogenic substrate S-2444). The format is biochemical. As to conditions: substrate S-2444 at 200 μM, pH 7.4, enzyme 2-3 nM, 405 nm, 15 minutes; read-out: Inhibitory Potency Against Urokinase, IC50. As for the experimental part: Distributor of Chromogenix) at 200 μM. […] Four concentrations were chosen, then 5 μl of each were diluted to a total assay volume of 200 μl. […] Several vials were reconstituted as directed on the vial, aliquoted and stored frozen. The enzyme was further diluted in assay buffer and 10 μl was used in the assay. Enzyme concentration in the assay was 2-3 nM. […] The Spectromax® calculated the reaction rates which were used to calculate percent inhibition of the compounds of this invention versus the reaction rate of the enzyme in the absence of any inhibitor. The Ki 's of the inhibitors were calculated from the percent inhibition and previously established Km.

Experiment [2] has as its system angiogenesis/capillary network formation. As to conditions: in vitro; Alliegro and Glaser, J. Cell Biol. 115: 402a (1991); cited from earlier work.

Each structure is given as a SMILES string. Where a name gives a salt, the structure may show the parent alone.

Consider `N=C(N)c1cc2c(Nc3nccs3)cccc2s1` [Example 2, 4-(1,3-thiazol-2-ylamino)-1-benzothiophene-2-carboximidamide trifluoroacetic acid salt], for which the half-maximal inhibitory concentration (IC50) (usually the concentration that gives 50% inhibition) in experiment [1] worked out at 192 nM. Still for that read-out and setting: the figure for `N=C(N)c1cc2ccc(C(=O)Nc3ccccc3)cc2s1` [Example 3, 2-[amino(imino)methyl]-N-phenyl-1-benzothiophene-6-carboxamide] is 3220 nM; for `CC(C)Oc1cccc(NC(=O)c2ccc3cc(C(=N)N)sc3c2)c1` [Example 4, 2-[amino(imino)methyl]-N-(3-isopropoxyphenyl)-1-benzothiophene-6-carboxamide] it is 680 nM. As for `N=C(N)NC(=O)c1nc(Cl)c(N)nc1N` [Amiloride], in experiment [2], the “inhibit angiogenesis/capillary network formation” value was “angiogenesis/capillary network formation in vitro”.

The record behind these values is US6207701A, “Urokinase inhibitors” (Abbott Laboratories, priority 2000, dated 2001).
